Assay results published in US8598204B2, “1,2-dihydro-2-oxoquinoline compounds as 5-HT4 receptor ligands” (Suven Life Sciences Limited, priority 2009, dated 2013).
Counter-ions that a name gives are not always drawn.

Experiments:
[1] = biological target: T1, recombinant human 5-HT4 receptor (Homo sapiens, UniProt Q13639); assay: Determination of EC50 values for 5-HT4 receptor (CRE-luciferase reporter, CHO cells); format: cell-based; conditions: stable CHO cell line expressing recombinant human 5-HT4 receptor and pCRE-Luc reporter; 4 hours incubation; luciferase activity
T1 construct: expressed in transfected cells
Procedure: A stable CHO cell line expressing recombinant human 5-HT4 receptor and pCRE-Luc reporter system was used for cell-based assay. The assay offers a non-radioactive based approach to determine binding of a compound to GPCRs. In this specific assay, the level of intracellular cyclic AMP which is modulated by activation or inhibition of the receptor is measured. The recombinant cells harbor luciferase reporter gene under the control of cAMP response element.
The above cells were grown in 96 well clear bottom white plates in Hams F12 medium containing 10% fetal bovine serum (FBS). Prior to the addition of compounds or standard agonist, cells were serum starved overnight. Increasing concentrations of test compounds were added in OptiMEM medium to the cells. The incubation was continued at 37° C. in CO2 incubator for 4 hours. Medium was removed and cells were washed with phosphate buffered saline. The cells were lysed and luciferase activity was measured in a Luminometer. Luminescence units were plotted against the compound concentrations using Graphpad software. EC50 values of the compounds were defined as the concentration required in stimulating the luciferase activity by 50%.

[2] = Rodent brain penetration study; format: in vivo; conditions: Wistar, rat; Wister/Male rats, 10 mg/kg, Oral, vehicle Water; brain/plasma; read-out: Steady State Brain Penetration (Cb/Cp)
Procedure: Male Wister rats (230-280 grams) obtained from NIN (National Institute of Nutrition, Hyderabad, India) was used as an experimental animal. Three animals were housed in each cage. Animals were given water and food ad libitum throughout the experiment, and maintained on a 12 hours light/dark cycle.
Brain penetration was determined in discrete manner in rats. One day prior to dosing day, male wistar rats (225-250 grams) were acclimatized. After acclimatization the rats were grouped according to the weight in each group, 3 animals were kept in individual cage and allowed free access to food and water. At each time point (0.5, 1, and 2 hours) n=3 animals were used.
NCE compound was dissolved in water and administered orally at (free base) 10 mg/kg. Blood samples were removed via, cardiac puncture by using isofurane anesthesia the animals were sacrificed to collect brain tissue. Plasma was separated and Brain samples were homogenized and stored frozen at −20° C. until analysis. The concentrations of the NCE compound in plasma and Brain were determined using LC-MS/MS method.
The NCE compounds were quantified in plasma and brain homogenate by validated LC-MS/MS method using solid phase extraction technique. NCE compounds were quantified in the calibration range of 1-500 ng/mL in plasma and brain homogenate. Study samples were analyzed using calibration samples in the batch and quality control samples spread across the batch. Extents of brain-blood ratio were calculated (Cb/Cp).

[3] = Rodent pharmacokinetic study; format: in vivo; conditions: Wistar, rat, plasma, Wister/Male rats, 5 mg/kg; for AUC(0-t) / Cmax / Tmax / half-life: vehicle Water
Procedure: Male Wister rats (230-280 grams) obtained from NIN (National Institute of Nutrition, Hyderabad, India) was used as an experimental animal. Three to five animals were housed in each cage. One day prior to dosing day, male wistar rats (225-250 grams) were anesthetized with isoflurane for surgical placement of jugular vein catheter. Animals were kept fasted over night and maintained on a 12 hours light/dark cycle. Three rats were dosed NCE (5 mg/Kg) orally and intravenously on day 0 and day 2.
At each time point blood was collected by jugular vein. Plasma was stored frozen at −20° C. until analysis. The concentrations of the NCE compound in plasma were determined using LC-MS/MS method. Schedule time points: Pre dose 0.25, 0.5, 1, 1.5, 2, 3, 4, 6, 8, 10, 12 and 24 hours after dosing (n=3). The NCE compounds were quantified in plasma by validated LC-MS/MS method using solid phase extraction technique. NCE compounds were quantified in the calibration range of 2-2000 ng/mL in plasma. Study samples were analyzed using calibration samples in the batch and quality control samples spread across the batch.
Pharmacokinetic parameters Cmax, Tmax, AUCt, T1/2 and Bioavailability were calculated by non-compartmental model using software WinNonlin version 5.0.1.

[4] = system: novel object recognition (cognition) in rats; assay: Object recognition task model; format: in vivo, rat; conditions: 1 mg/kg p.o.
Procedure: The cognition-enhancing properties of compounds of this invention were estimated using a model of animal cognition: the object recognition task model.
Male Wister rats (230-280 grams) obtained from N. I. N. (National Institute of Nutrition, Hyderabad, India) was used as experimental animals. Four animals were housed in each cage. Animals were kept on 20% food deprivation before one day and given water ad libitum throughout the experiment and maintained on a 12 hours light/dark cycle. Also the rats were habituated to individual arenas for 1 hour in the absence of any objects.
One group of 12 rats received vehicle (1 mL/Kg) orally and another set of animals received compound of the formula (I) either orally or i.p., before one hour of the familiar (T1) and choice trial (T2).
The experiment was carried out in a 50×50×50 cm open field made up of acrylic. In the familiarization phase (T1), the rats were placed individually in the open field for 3 minutes, in which two identical objects (plastic bottles, 12.5 cm height×5.5 cm diameter) covered in yellow masking tape alone (a1 and a2) were positioned in two adjacent corners, 10 cm. from the walls. After 24 hours of the (T1) trial for long-term memory test, the same rats were placed in the same arena as they were placed in (T1) trial. Choice phase (T2) rats were allowed to explore the open field for 3 minutes in presence of one familiar object (a3) and one novel object (b) (Amber color glass bottle, 12 cm high and 5 cm in diameter). Familiar objects presented similar textures, colors and sizes. During the T1 and T2 trial, explorations of each object (defined as sniffing, licking, chewing or having moving vibrissae whilst directing the nose towards the object at a distance of less than 1 cm) were recorded separately by stopwatch. Sitting on an object was not regarded as exploratory activity, however, it was rarely observed.
T1 is the total time spent exploring the familiar objects (a 1+a2).
T2 is the total time spent exploring the familiar object and novel object (a3+b).
The object recognition test was performed as described by Ennaceur, A., Delacour, J., 1988, A new one-trial test for neurobiological studies of memory in rats—Behavioural data, Behav. Brain Res., 31, 47-59.

[5] = choice trial T2 24 hours after T1

T1 sequence (Q13639 whole entry): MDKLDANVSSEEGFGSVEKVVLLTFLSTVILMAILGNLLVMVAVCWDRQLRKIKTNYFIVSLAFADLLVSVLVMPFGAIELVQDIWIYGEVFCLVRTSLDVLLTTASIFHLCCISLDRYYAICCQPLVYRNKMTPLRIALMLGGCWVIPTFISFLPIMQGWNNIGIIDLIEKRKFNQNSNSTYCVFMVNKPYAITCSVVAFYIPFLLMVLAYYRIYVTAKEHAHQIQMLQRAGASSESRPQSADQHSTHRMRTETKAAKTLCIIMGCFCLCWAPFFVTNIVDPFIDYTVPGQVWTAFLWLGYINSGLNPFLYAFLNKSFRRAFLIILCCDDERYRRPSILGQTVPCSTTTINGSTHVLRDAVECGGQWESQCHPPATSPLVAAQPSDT

In the case of `CC(C)N1C2CC3CC1CC(NC(=O)c1c(O)c4ccccc4n(C(C)C)c1=O)(C3)C2` [Example 15, N-(2-Isopropyl-2-azatricyclo[3.3.1.1^3,7]dec-5-yl)-4-hydroxy-1-isopropyl-2-oxo-1,2-dihydro-quinoline-3-carboxamide], the EC50 [1] is reported as 2730 nM.

For `CC(C)n1c(=O)c(C(=O)NC23CC4CC(C2)N(C)C(C4)C3)c(O)c2ccccc21` [Example 14, N-(2-Methyl-2-azatricyclo[3.3.1.1^3,7]dec-5-yl)-4-hydroxy-1-isopropyl-2-oxo-1,2-dihydro-quinoline-3-carboxamide], the EC50 [1] was 307 nM, the Kp [2] was 2.97 ± 0.94 and the bioavailability ([3]; Oral versus Intravenous) was 28 ± 3%. For the same compound, the AUC(0-t) ([3]; Intravenous) was 820 ± 247 ng·h/mL, the Cmax ([3]; Intravenous) was 523 ± 57 ng/mL and the Tmax ([3]; Intravenous) was 0.08 h. For the same compound, the half-life ([3]; Intravenous) was 3.31 ± 1.47 h, the AUC(0-t) ([3]; Oral) was 223 ± 50 ng·h/mL and the Cmax ([3]; Oral) was 67 ± 17 ng/mL. The Tmax ([3]; Oral) was 0.42 ± 0.14 h and the half-life ([3]; Oral) was 1.67 ± 0.27 h.

Compound `CCCCN1CCC(NC(=O)c2c(O)c3ccccc3n(C(C)C)c2=O)CC1` [Example 20, N-(1-Butylpiperidin-4-yl)-4-hydroxy-1-isopropyl-2-oxo-1,2-dihydroquinoline-3-carboxamide hydrochloride] has an EC50 [1] of 77 nM.

With `CCN1C2CC3CC1CC(CNC(=O)c1c(O)c4ccccc4n(C(C)C)c1=O)(C3)C2.Cl` [Example 19, N-(2-Ethyl-2-azatricyclo[3.3.1.1^3,7]dec-5-ylmethyl)-4-hydroxy-1-isopropyl-2-oxo-1,2-dihydroquinoline-3-carboxamide hydrochloride] the Inference [4] was “Active”, the “Exploration time mean ± S.E.M, Familiar object” value [4, 5] was 8.83 ± 1.54 s and the “Exploration time mean ± S.E.M, Novel object” value [4, 5] was 14.09 ± 1.56 s. For the same compound, the EC50 [1] was 645 nM.

In the case of `CC(C)n1c(=O)c(C(=O)NCCCN2C3CC4CC2CC(c2ccccc2)(C4)C3)c(O)c2ccccc21` [Example 5, N-[(5-Phenyl-2-azatricyclo[3.3.1.1^3,7]dec-2-yl)propyl]-4-hydroxy-1-isopropyl-2-oxo-1,2-dihydroquinoline-3-carboxamide hydrochloride], the EC50 [1] is reported as 1600 nM.

`CC(C)n1c(=O)c(C(=O)NCCCN2CC3CC4CC2CN(C4)C3)c(O)c2ccccc21` (centres unmarked) [Example 6, N-[(1,4-Diazatricyclo[4.3.1.1^3,8]undec-4-yl)propyl]-4-hydroxy-1-isopropyl-2-oxo-1,2-dihydro-quinoline-3-carboxamide] showed an EC50 [1] of 667 nM.

With `CC(C)n1c(=O)c(C(=O)NCCCN2C3CC4CC(C3)CC2C4)c(O)c2cc(Cl)ccc21` [Example 8, N-[(2-Azatricyclo[3.3.1.1^3,7]dec-2-yl)propyl]-6-chloro-4-hydroxy-1-isopropyl-2-oxo-1,2-dihydroquinoline-3-carboxamide] the EC50 [1] was 3080 nM.

For `CC(C)n1c(=O)c(C(=O)NCCN2C3CC4CC(C3)CC2C4)c(O)c2ccccc21` [Example 17, N-[(2-Azatricyclo[3.3.1.1^3,7]dec-2-yl)ethyl]-4-hydroxy-1-isopropyl-2-oxo-1,2-dihydroquinoline-3-carboxamide hydrochloride], the EC50 [1] was 1150 nM.

Compound `CC(C)n1c(=O)c(C(=O)NCCCN2C3CC4CC(C3)CC2C4)c(O)c2cc(Br)ccc21` [Example 10, N-[(2-Azatricyclo[3.3.1.1^3,7]dec-2-yl)propyl]-6-bromo-4-hydroxy-1-isopropyl-2-oxo-1,2-dihydroquinoline-3-carboxamide] has an EC50 [1] of 2800 nM.

For `CC(C)n1c(=O)c(C(=O)NCCCN2C3CC4CC(C3)CC2C4)c(O)c2cc(F)ccc21` [Example 9, N-[(2-Azatricyclo[3.3.1.1^3,7]dec-2-yl)propyl]-6-fluoro-4-hydroxy-1-isopropyl-2-oxo-1,2-dihydroquinoline-3-carboxamide], the EC50 [1] was 935 nM.

Compound `CC(C)n1c(=O)c(C(=O)NC2C3CCN(CC3)C2Cc2ccccc2)c(O)c2ccccc21` (centres unmarked) [Example 16, N-(2-Benzyl-1-azabicyclo[2.2.2]oct-3-yl)-4-hydroxy-1-isopropyl-2-oxo-1,2-dihydroquinoline-3-carboxamide] has an EC50 [1] of 3920 nM.

`CC(C)n1c(=O)c(C(=O)NC2CCN(C3C4CC5CC(C4)CC3C5)C2)c(O)c2ccccc21` (centres unmarked) [Example 3, N-[1-(Tricyclo[3.3.1.1^3,7]dec-2-yl)pyrrolidin-3-yl]-4-hydroxy-1-isopropyl-2-oxo-1,2-dihydroquinoline-3-carboxamide] gave an EC50 [1] of 1110 nM.

For `CC(C)n1c(=O)c(C(=O)NC2C3CCN(CC3)C2Cc2cccnc2)c(O)c2ccccc21` (centres unmarked) [Example 12, N-[2-(Pyridin-3-ylmethyl)-1-azabicyclo[2.2.2]oct-3-yl]-4-hydroxy-1-isopropyl-2-oxo-1,2-dihydroquinoline-3-carboxamide], the EC50 [1] was 972 nM.

Work on `CC(C)n1c(=O)c(C(=O)NC2C3CCN(CC3)C2Cc2ccccn2)c(O)c2ccccc21` (centres unmarked) [Example 13, N-[2-(Pyridin-2-ylmethyl)-1-azabicyclo[2.2.2]oct-3-yl]-4-hydroxy-1-isopropyl-2-oxo-1,2-dihydroquinoline-3-carboxamide] yielded an EC50 [1] of 462 nM.

`CCCCN1C2CC3CC1CC(NC(=O)c1c(O)c4ccccc4n(C(C)C)c1=O)(C3)C2` [Example 18, N-(2-Butyl-2-azatricyclo[3.3.1.1^3,7]dec-5-yl)-4-hydroxy-1-isopropyl-2-oxo-1,2-dihydroquinoline-3-carboxamide hydrochloride] showed an EC50 [1] of 958 nM.

Compound `CC(C)Cn1c(=O)c(C(=O)NCCCN2C3CC4CC(C3)CC2C4)c(O)c2ccccc21` [Example 2, N-[(2-Azatricyclo[3.3.1.1^3,7]dec-2-yl)propyl]-4-hydroxy-1-isobutyl-2-oxo-1,2-dihydroquinoline-3-carboxamide hydrochloride] has an EC50 [1] of 4020 nM.

Work on `CC(C)n1c(=O)c(C(=O)NC23CC4CC2CC(N2CCCC2)(C4)C3)c(O)c2ccccc21` (centres unmarked) [Example 21] yielded an EC50 [1] of 476 nM.

In the case of “N-[(2-Azatricyclo[3.3.1.1^3,7]dec-2-yl) propyl]-4-hydroxy-1-isobutyl-6-methoxy-2-oxo-1,2-dihydroquinoline-3-carboxamide [Example 7]”, the EC50 [1] is reported as 1000 nM.

`CC(C)n1c(=O)c(C(=O)NCCCN2C3CC4CC(C3)CC2C4)c(O)c2cc(N)ccc21` [Example 11, N-[(2-Azatricyclo[3.3.1.1^3,7]dec-2-yl)propyl]-6-amino-4-hydroxy-1-isopropyl-2-oxo-1,2-dihydroquinoline-3-carboxamide] gave an EC50 [1] of 3000 nM.
